Laboratory results from US20020137929A1, “1 - (3-heterocyclylphenyl) isothiourea, -isourea, -guanidine and -amidine herbicidal agents” (Intellectual Property Department, BASF Aktiengesellschaft, priority 1998, published 2002).

Experiments:
[1] = test system: GALAP (Galium); assay: Preemergence herbicidal evaluation; format: in vivo, Galium aparine; conditions: rated 4-5 weeks after treatment
Method in brief: (§1)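 Scores (0–9) reflect visual comparison with control plants for stand, vigor, malformation, size and chlorosis. Compound was applied to the soil after sowing, before emergence, as an aqueous acetone spray (about 0.0156–0.500 kg/ha), and cups were kept in a greenhouse for 4–5 weeks.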

[2] = test system: ECHORC (Watergrass (Calif.)); assay: Postemergence weed control under flooded paddy conditions; format: in vivo, Echinochloa oryzoides; conditions: postemergence weeds, 3-4 weeks after treatment
Method in brief: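 Weeds 3 to 5 cm tall and rice seedlings at the 1.5 to 2.5 leaf stage were flooded, with water held 1.5 to 3 cm above the soil. Compounds in 50/50 v/v aqueous/acetone went into the flood water at about 0.0313 to 0.500 kg/ha. Visual 0-9 ratings versus control were made 3 to 4 weeks later.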

[3] = test system: AMBEL (Ragweed, Common); assay: Postemergence herbicidal evaluation; format: in vivo, Ambrosia artemisifolia
Method in brief: (§2)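 Herbicidal effect was judged by eye on a 0–9 scale covering stand, vigor, deformity, size and chlorosis, compared with controls, four to five weeks after seedlings about two weeks old were sprayed (40 psi, ~0.0156–0.500 kg/ha).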

[4] = test system: GLXMAW (Soybean, Williams); assay: Postemergence herbicidal evaluation; format: in vivo, Glycine max, (L.) Merr. cv Williams
Method in brief: as §2

[5] = test system: SETVI (Foxtail, Green); assay: Postemergence herbicidal evaluation; format: in vivo, Setaria viridis
Method in brief: as §2

[6] = test system: ECHCG (Barnyardgrass); assay: Preemergence herbicidal evaluation; format: in vivo, Echinochloa crus-galli; conditions: rated 4-5 weeks after treatment
Method in brief: as §1

[7] = test system: IPOHE (Morningglory, Ivyleaf); assay: Postemergence herbicidal evaluation; format: in vivo, Ipomoea hederacea
Method in brief: as §2

[8] = test system: ZEAMX (Corn, Field); assay: Preemergence herbicidal evaluation; format: in vivo, Zea mays; conditions: rated 4-5 weeks after treatment
Method in brief: as §1

[9] = test system: ECHCG (Barnyardgrass); assay: Postemergence herbicidal evaluation; format: in vivo, Echinochloa crus-galli
Method in brief: as §2

[10] = test system: IPOHE (Morningglory, Ivyleaf); assay: Preemergence herbicidal evaluation; format: in vivo, Ipomoea hederacea; conditions: rated 4-5 weeks after treatment
Method in brief: as §1

[11] = test system: CASOB (Sicklepod); assay: Preemergence herbicidal evaluation; format: in vivo, Cassia obtusifolia; conditions: rated 4-5 weeks after treatment
Method in brief: as §1

[12] = test system: TRZAWR (Wheat, Winter, cv Riband); assay: Postemergence herbicidal evaluation; format: in vivo, Triticum aestivum
Method in brief: as §2

[13] = test system: ABUTH (Velvetleaf); assay: Postemergence herbicidal evaluation; format: in vivo, Abutilon theophrasti
Method in brief: as §2

[14] = test system: CHEAL (Lambsquarters, Common); assay: Preemergence herbicidal evaluation; format: in vivo, Chenopodium album; conditions: rated 4-5 weeks after treatment
Method in brief: as §1

## CCOP(=O)(CN1C(=O)CSC1=Nc1cc(-n2c(=O)cc(C(F)(F)F)n(C)c2=O)c(F)cc1Cl)OCC [Compound 35, Diethyl {{2-{{2-chloro-5-[3,6-dihydro-3-methyl-2,6-dioxo-4-(trifluoromethyl)-1(2H)-pyrimidinyl]-4-fluorophenyl}imino}-4-oxo-3-thiazolidinyl}methyl}phosphonate]
[1]; rate 0.0625 kg/ha
  Preemergence herbicidal rating GALAP: 0.0
[1]; rate 0.1250 kg/ha
  Preemergence herbicidal rating GALAP: 0.0
[1]; rate 0.2500 kg/ha
  Preemergence herbicidal rating GALAP: 9.0
[2]; rate 0.1250 kg/ha
  Herbicidal rating ECHORC: 3.0
[2]; rate 0.2500 kg/ha
  Herbicidal rating ECHORC: 6.0
[3]; Rate 0.0158 kg/ha
  Postemergence herbicidal rating AMBEL: 9.0
[3]; Rate 0.0315 kg/ha
  Postemergence herbicidal rating AMBEL: 9.0
[3]; Rate 0.0630 kg/ha
  Postemergence herbicidal rating AMBEL: 9.0
[4]; Rate 0.0158 kg/ha
  Postemergence herbicidal rating GLXMAW: 7.0
[4]; Rate 0.0315 kg/ha
  Postemergence herbicidal rating GLXMAW: 7.5
[4]; Rate 0.0630 kg/ha
  Postemergence herbicidal rating GLXMAW: 9.0
[5]; Rate 0.0158 kg/ha
  Postemergence herbicidal rating SETVI: 0.0
[5]; Rate 0.0315 kg/ha
  Postemergence herbicidal rating SETVI: 2.0
[5]; Rate 0.0630 kg/ha
  Postemergence herbicidal rating SETVI: 4.0
[6]; rate 0.0625 kg/ha
  Preemergence herbicidal rating ECHCG: 0.0
[6]; rate 0.1250 kg/ha
  Preemergence herbicidal rating ECHCG: 0.0
[6]; rate 0.2500 kg/ha
  Preemergence herbicidal rating ECHCG: 0.0
[7]; Rate 0.0158 kg/ha
  Postemergence herbicidal rating IPOHE: 9.0
[7]; Rate 0.0315 kg/ha
  Postemergence herbicidal rating IPOHE: 9.0
[7]; Rate 0.0630 kg/ha
  Postemergence herbicidal rating IPOHE: 9.0
[8]; rate 0.0625 kg/ha
  Preemergence herbicidal rating ZEAMX: 0.0
[8]; rate 0.1250 kg/ha
  Preemergence herbicidal rating ZEAMX: 0.0
[8]; rate 0.2500 kg/ha
  Preemergence herbicidal rating ZEAMX: 0.0
[9]; Rate 0.0158 kg/ha
  Postemergence herbicidal rating ECHCG: 0.0
[9]; Rate 0.0315 kg/ha
  Postemergence herbicidal rating ECHCG: 0.0
[9]; Rate 0.0630 kg/ha
  Postemergence herbicidal rating ECHCG: 1.0
[10]; rate 0.0625 kg/ha
  Preemergence herbicidal rating IPOHE: 0.0
[10]; rate 0.1250 kg/ha
  Preemergence herbicidal rating IPOHE: 3.0
[10]; rate 0.2500 kg/ha
  Preemergence herbicidal rating IPOHE: 9.0
[11]; rate 0.0625 kg/ha
  Preemergence herbicidal rating CASOB: 0.0
[11]; rate 0.1250 kg/ha
  Preemergence herbicidal rating CASOB: 0.0
[11]; rate 0.2500 kg/ha
  Preemergence herbicidal rating CASOB: 3.0
[12]; Rate 0.0158 kg/ha
  Postemergence herbicidal rating TRZAWR: 2.5
[12]; Rate 0.0315 kg/ha
  Postemergence herbicidal rating TRZAWR: 3.0
[12]; Rate 0.0630 kg/ha
  Postemergence herbicidal rating TRZAWR: 3.5
[13]; Rate 0.0158 kg/ha
  Postemergence herbicidal rating ABUTH: 9.0
[13]; Rate 0.0315 kg/ha
  Postemergence herbicidal rating ABUTH: 9.0
[13]; Rate 0.0630 kg/ha
  Postemergence herbicidal rating ABUTH: 9.0
[14]; rate 0.0625 kg/ha
  Preemergence herbicidal rating CHEAL: 9.0
[14]; rate 0.1250 kg/ha
  Preemergence herbicidal rating CHEAL: 9.0
[14]; rate 0.2500 kg/ha
  Preemergence herbicidal rating CHEAL: 9.0

## CCOC(=O)CN1CCSC1=Nc1cc(-n2nc(C)n(C(F)F)c2=O)c(F)cc1Cl [Compound 36]
[1]; rate 0.0625 kg/ha
  Preemergence herbicidal rating GALAP: 9.0
[1]; rate 0.1250 kg/ha
  Preemergence herbicidal rating GALAP: 9.0
[1]; rate 0.2500 kg/ha
  Preemergence herbicidal rating GALAP: 9.0
[2]; rate 0.0313 kg/ha
  Herbicidal rating ECHORC: 4.0
[2]; rate 0.0625 kg/ha
  Herbicidal rating ECHORC: 6.0
[2]; rate 0.1250 kg/ha
  Herbicidal rating ECHORC: 7.0
[2]; rate 0.2500 kg/ha
  Herbicidal rating ECHORC: 9.0
[3]; Rate 0.0158 kg/ha
  Postemergence herbicidal rating AMBEL: 2.0
[3]; Rate 0.0315 kg/ha
  Postemergence herbicidal rating AMBEL: 3.0
[3]; Rate 0.0630 kg/ha
  Postemergence herbicidal rating AMBEL: 9.0
[4]; Rate 0.0158 kg/ha
  Postemergence herbicidal rating GLXMAW: 5.0
[4]; Rate 0.0315 kg/ha
  Postemergence herbicidal rating GLXMAW: 5.5
[4]; Rate 0.0630 kg/ha
  Postemergence herbicidal rating GLXMAW: 8.0
[5]; Rate 0.0158 kg/ha
  Postemergence herbicidal rating SETVI: 3.0
[5]; Rate 0.0315 kg/ha
  Postemergence herbicidal rating SETVI: 9.0
[5]; Rate 0.0630 kg/ha
  Postemergence herbicidal rating SETVI: 9.0
[6]; rate 0.0625 kg/ha
  Preemergence herbicidal rating ECHCG: 0.0
[6]; rate 0.1250 kg/ha
  Preemergence herbicidal rating ECHCG: 2.0
[6]; rate 0.2500 kg/ha
  Preemergence herbicidal rating ECHCG: 6.0
[7]; Rate 0.0158 kg/ha
  Postemergence herbicidal rating IPOHE: 9.0
[7]; Rate 0.0315 kg/ha
  Postemergence herbicidal rating IPOHE: 9.0
[7]; Rate 0.0630 kg/ha
  Postemergence herbicidal rating IPOHE: 9.0
[8]; rate 0.0625 kg/ha
  Preemergence herbicidal rating ZEAMX: 0.0
[8]; rate 0.1250 kg/ha
  Preemergence herbicidal rating ZEAMX: 3.0
[8]; rate 0.2500 kg/ha
  Preemergence herbicidal rating ZEAMX: 6.0
[9]; Rate 0.0158 kg/ha
  Postemergence herbicidal rating ECHCG: 0.0
[9]; Rate 0.0315 kg/ha
  Postemergence herbicidal rating ECHCG: 2.0
[9]; Rate 0.0630 kg/ha
  Postemergence herbicidal rating ECHCG: 9.0
[10]; rate 0.0625 kg/ha
  Preemergence herbicidal rating IPOHE: 0.0
[10]; rate 0.1250 kg/ha
  Preemergence herbicidal rating IPOHE: 0.0
[10]; rate 0.2500 kg/ha
  Preemergence herbicidal rating IPOHE: 0.0
[11]; rate 0.0625 kg/ha
  Preemergence herbicidal rating CASOB: 0.0
[11]; rate 0.2500 kg/ha
  Preemergence herbicidal rating CASOB: 0.0
[12]; Rate 0.0158 kg/ha
  Postemergence herbicidal rating TRZAWR: 1.5
[12]; Rate 0.0315 kg/ha
  Postemergence herbicidal rating TRZAWR: 2.5
[12]; Rate 0.0630 kg/ha
  Postemergence herbicidal rating TRZAWR: 3.5
[13]; Rate 0.0158 kg/ha
  Postemergence herbicidal rating ABUTH: 9.0
[13]; Rate 0.0315 kg/ha
  Postemergence herbicidal rating ABUTH: 9.0
[13]; Rate 0.0630 kg/ha
  Postemergence herbicidal rating ABUTH: 9.0
[14]; rate 0.0625 kg/ha
  Preemergence herbicidal rating CHEAL: 0.0
[14]; rate 0.1250 kg/ha
  Preemergence herbicidal rating CHEAL: 9.0
[14]; rate 0.2500 kg/ha
  Preemergence herbicidal rating CHEAL: 9.0
